For 33 molecules, LC retention time results are on record in the RepoRT retention time repository (doi:10.1016/j.chroma.2019.01.023).

A short description of the series: HILIC, Merck SeQuant ZIC-pHILIC, 150 × 2.1 mm, 5 µm, 40 °C, 0.3 mL/min, estimated dead time 1.1 min; A: acetonitrile; B: water + 2.8 mM ammonium formate, pH 9; gradient (min/%B) 0/5 1/5 10/51 13/51 13.1/5 20/5. The note with it: stereoisomer not certain.

For `NCCS(=O)O` [HYPOTAURINE], the LC retention time is 8.8 min.

Consider `O=C(CO)C(O)C(O)C(O)COP(=O)(O)O` (stereo not drawn) [FRUCTOSE 6-PHOSPHATE], for which the LC retention time is 9.3 min.

On to `CNCC(O)c1ccc(O)c(O)c1` (stereo not drawn) [EPINEPHRINE], for which the LC retention time was 2.03 min.

Take `NC(=O)C1=CN(C2OC(COP(=O)(O)OP(=O)(O)OCC3OC(n4cnc5c(N)ncnc54)C(OP(=O)(O)O)C3O)C(O)C2O)C=CC1` (stereo not drawn) [NADPH]: the LC retention time is 10.1 min.

In the case of `O=C(O)C(O)C(O)C(O)C(O)CO` (stereo not drawn) [GLUCONATE], the LC retention time was 8.5 min.

For the molecule `Nc1nc2c(ncn2C2CC(O)C(COP(=O)(O)OP(=O)(O)OP(=O)(O)O)O2)c(=O)[nH]1` (stereo not drawn) [DGTP], the LC retention time is 11.1 min.

Take `NC(CCCC(N)C(=O)O)C(=O)O` (stereo not drawn) [DIAMINOPIMELATE]: the LC retention time is 10.5 min.

As for `OCC1OC(OCC2OC(OCC3OC(OC4(CO)OC(CO)C(O)C4O)C(O)C(O)C3O)C(O)C(O)C2O)C(O)C(O)C1O` (stereo not drawn) [STACHYOSE], the LC retention time is 10.1 min.

For the molecule `CC(=O)NC1C(O)CC(O)(C(=O)O)OC1C(O)C(O)CO` (stereo not drawn) [N-ACETYLNEURAMINATE], the LC retention time is 8.33 min.

With `O=c1[nH]cnc2c1ncn2C1OC(COP(=O)([O-])OP(=O)([O-])O)C(O)C1O` (stereo not drawn) [INOSINE 5'-DIPHOSPHATE], the LC retention time was 9.98 min.

For the molecule `NC(CS)C(=O)NCC(=O)O` (stereo not drawn) [CYS-GLY], the LC retention time is 8.8 min.

In the case of `NC(CSSCC(N)C(=O)O)C(=O)O` (stereo not drawn) [CYSTINE], the LC retention time is 10.3 min.

For `Nc1ncnc2c1ncn2C1OC(COP(=O)(O)OP(=O)(O)O)C(O)C1O` (stereo not drawn) [ADENOSINE 5'-DIPHOSPHATE], the LC retention time is 9.46 min.

With `CS(=N)(=O)CCC(N)C(=O)O` (stereo not drawn) [METHIONINE SULFOXIMINE], the LC retention time is 9.03 min.

For `O=C(O)CCCC(=O)C(=O)O` [OXOADIPATE], the LC retention time was 8.87 min.

Regarding `NC(CCC(=O)O)C(=O)O` (stereo not drawn) [GLUTAMATE], the LC retention time was 8.69 min.

Regarding `O=P(O)(O)OC(CO)CO` [BETA-GLYCEROPHOSPHATE], the LC retention time is 8.57 min.

Turning to `O=P(O)(O)OCC(O)CO` (stereo not drawn) [GLYCEROL 3-PHOSPHATE], the LC retention time was 8.79 min.

In the case of `NC(CCSCC(N)C(=O)O)C(=O)O` (stereo not drawn) [CYSTATHIONINE], the LC retention time was 10.3 min.

For the molecule `O=C1OC(C(O)CO)C(O)=C1O` (stereo not drawn) [ASCORBATE], the LC retention time is 8.49 min.

Regarding `NC(CS(=O)O)C(=O)O` (stereo not drawn) [3-SULFINOALANINE], the LC retention time was 8.64 min.

On to `OCC1OC(OCC2OC(O)(CO)C(O)C2O)C(O)C(O)C1O` (stereo not drawn) [PALATINOSE], for which the LC retention time was 8.8 min.

With `O=C(O)C1(O)CC(O)C(O)C(O)C1` (stereo not drawn) [QUINATE], the LC retention time is 8.1 min.

As for `COC(=O)c1ccc(O)c(OC)c1` [METHYL VANILLATE], the LC retention time was 1.47 min.

Take `NCCP(=O)(O)O` [(2-AMINOETHYL)PHOSPHONATE]: the LC retention time was 9.6 min.

For the molecule `Nc1ccn(C2OC(CO)C3OP(=O)(O)OC32)c(=O)n1` (stereo not drawn) [CYTIDINE 2',3'-CYCLIC PHOSPHATE], the LC retention time was 8.06 min.

Consider `O=C(O)c1ccccc1` [BENZOATE], for which the LC retention time was 1.41 min.

Take `O=C([O-])c1ccccn1` [PICOLINATE]: the LC retention time is 6.41 min.

In the case of `Nc1ncnc2c1ncn2C1OC(COP(=O)(O)OP(=O)(O)OC2OC(CO)C(O)C(O)C2O)C(O)C1O` (stereo not drawn) [ADP-GLUCOSE], the LC retention time is 9.12 min.

`O=C(O)C(O)COP(=O)(O)O` (stereo not drawn) [3-PHOSPHOGLYCERATE]: the LC retention time was 10.1 min.

Take `CN(C)C(N)=NCCCC(N)C(=O)O` (stereo not drawn) [N,N-DIMETHYL-ARGININE]: the LC retention time was 2.02 min.

As for `CC(C)=CC(=O)SCCNC(=O)CCNC(=O)C(O)C(C)(C)COP(=O)(O)OP(=O)(O)OCC1OC(n2cnc3c(N)ncnc32)C(O)C1OP(=O)(O)O` (stereo not drawn) [3-METHYLCROTONYL-COA], the LC retention time was 7.95 min.

`O=CC(O)COP(=O)(O)O` (stereo not drawn) [GLYCERALDEHYDE 3-PHOSPHATE]: the LC retention time was 6.24 min.
